According to ChEMBL document CHEMBL1201862, “PubChem BioAssay data set” (2004):
Each block holds one compound with its values, some of them ahead of it. Active and inactive are the calls of the source.

Key:
[1] = molecular target: Matrix metalloproteinase-14 (Homo sapiens, UniProt P50281); assay: Dose Response confirmation of uHTS hits for a small molecule inhibitors of MT1-MMP activation in a fluorescence assay set 1.; type: functional
[2] = HEK293T cell cytotoxicity, dose response, cytotoxicity control for HIV Vif inhibitor project, cherry-picks (AID 652208); type: functional, cell-based
[3] = molecular target: T1, Methionyl-tRNA synthetase, putative (Trypanosoma brucei brucei, UniProt Q38C91); type: functional, Trypanosoma brucei brucei strain 927/4 GUTat10.1
T1 sequence (Q38C91 whole entry): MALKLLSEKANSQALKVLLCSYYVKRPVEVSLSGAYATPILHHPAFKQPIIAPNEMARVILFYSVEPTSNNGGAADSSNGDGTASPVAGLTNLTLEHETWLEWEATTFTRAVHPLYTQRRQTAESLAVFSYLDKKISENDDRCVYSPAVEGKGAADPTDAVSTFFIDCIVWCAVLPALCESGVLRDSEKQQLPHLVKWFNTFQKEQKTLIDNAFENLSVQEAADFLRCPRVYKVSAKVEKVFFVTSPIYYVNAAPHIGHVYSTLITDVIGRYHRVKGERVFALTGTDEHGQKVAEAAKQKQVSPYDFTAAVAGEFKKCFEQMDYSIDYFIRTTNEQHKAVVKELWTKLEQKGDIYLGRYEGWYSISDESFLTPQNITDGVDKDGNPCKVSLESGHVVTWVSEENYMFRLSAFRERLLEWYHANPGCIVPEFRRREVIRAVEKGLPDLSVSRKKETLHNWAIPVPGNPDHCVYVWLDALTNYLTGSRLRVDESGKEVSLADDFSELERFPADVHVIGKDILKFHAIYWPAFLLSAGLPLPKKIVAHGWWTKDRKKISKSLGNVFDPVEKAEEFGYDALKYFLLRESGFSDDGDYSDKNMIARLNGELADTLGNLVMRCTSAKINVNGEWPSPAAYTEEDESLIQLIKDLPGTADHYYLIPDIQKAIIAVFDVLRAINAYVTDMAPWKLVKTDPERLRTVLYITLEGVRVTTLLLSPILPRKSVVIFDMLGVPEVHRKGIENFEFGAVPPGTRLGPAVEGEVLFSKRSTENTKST

[4] = Counterscreen for inhibitors of Trypanosoma brucei methionyl tRNA synthetase (MetRS): Luminescence-based cell-based high throughput dose response assay to identify compounds that are cytotoxic to Jurkat human T lymphocyte cells.; type: functional
[5] = molecular target: T1, Methionyl-tRNA synthetase, putative; type: functional, Trypanosoma brucei brucei strain 927/4 GUTat10.1; remark: listed apart in the source
[6] = test system: H9c2; assay: cells; type: functional, cell-based; settings: Rattus norvegicus, H9c2, Myocardium;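 also: confirmatory concentration-response retest of ultra-high-throughput screening hits for modulation of myocardial damage; cell death induced by hydrogen peroxide oxidative stress; compound pretreatment for 60 min then peroxide exposure for 2 h; potency is for protecting the cells against peroxide damage rather than for killing them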
[7] = molecular target: T2, ATP-dependent translocase ABCB1 (Homo sapiens, UniProt P08183); assay: ABCG2 efflux pump inhibitor potency, dose response, Ig-MXP3 cells, JC-1, flow cytometry, set 2 (AID 504566); type: functional; settings: read-out: EC50_MICROM_;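 also: flow cytometry median green fluorescence of retained JC-1 dye; potency of efflux pump inhibition measured as rising substrate retention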
T2 sequence (P08183 whole entry): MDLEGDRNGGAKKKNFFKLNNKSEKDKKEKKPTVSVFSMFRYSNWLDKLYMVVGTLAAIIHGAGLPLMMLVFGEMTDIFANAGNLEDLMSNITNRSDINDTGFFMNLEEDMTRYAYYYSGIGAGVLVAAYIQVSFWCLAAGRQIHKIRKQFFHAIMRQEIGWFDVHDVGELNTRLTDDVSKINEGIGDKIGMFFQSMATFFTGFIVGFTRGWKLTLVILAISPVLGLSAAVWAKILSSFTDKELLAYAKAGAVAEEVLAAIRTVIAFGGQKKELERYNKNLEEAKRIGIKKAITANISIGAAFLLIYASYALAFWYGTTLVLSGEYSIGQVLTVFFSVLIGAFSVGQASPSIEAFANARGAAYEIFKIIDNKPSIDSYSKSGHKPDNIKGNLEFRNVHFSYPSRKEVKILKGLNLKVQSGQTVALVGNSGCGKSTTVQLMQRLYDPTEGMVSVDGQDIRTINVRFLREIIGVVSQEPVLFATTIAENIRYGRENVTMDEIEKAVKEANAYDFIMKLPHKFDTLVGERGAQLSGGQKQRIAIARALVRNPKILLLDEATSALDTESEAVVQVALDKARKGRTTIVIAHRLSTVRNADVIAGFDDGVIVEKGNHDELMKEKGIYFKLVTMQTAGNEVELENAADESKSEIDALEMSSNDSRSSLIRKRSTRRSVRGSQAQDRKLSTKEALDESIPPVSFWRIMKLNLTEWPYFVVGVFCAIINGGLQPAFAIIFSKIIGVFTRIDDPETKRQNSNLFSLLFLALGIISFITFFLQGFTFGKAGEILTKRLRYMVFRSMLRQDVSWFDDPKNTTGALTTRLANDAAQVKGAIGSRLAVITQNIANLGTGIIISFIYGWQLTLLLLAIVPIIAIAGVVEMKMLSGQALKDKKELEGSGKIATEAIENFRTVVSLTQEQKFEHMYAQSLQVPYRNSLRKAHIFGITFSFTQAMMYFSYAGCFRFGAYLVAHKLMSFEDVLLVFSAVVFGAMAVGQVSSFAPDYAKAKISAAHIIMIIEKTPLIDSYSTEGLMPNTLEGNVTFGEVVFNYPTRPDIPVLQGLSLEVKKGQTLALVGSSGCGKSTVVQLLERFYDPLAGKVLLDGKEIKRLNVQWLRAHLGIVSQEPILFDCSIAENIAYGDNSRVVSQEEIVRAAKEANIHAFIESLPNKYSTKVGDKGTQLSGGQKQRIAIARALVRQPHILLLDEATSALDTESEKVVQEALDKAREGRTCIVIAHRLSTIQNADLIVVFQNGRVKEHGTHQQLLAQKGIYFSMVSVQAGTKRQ

[8] = molecular target: T2, ATP-dependent translocase ABCB1; assay: ABCB1 efflux inhibitor potency, dose response, Jurkat-DNR cells, JC-1, flow cytometry, set 2 (AID 504569); type: functional; settings: read-out: EC50_MICROM_;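 also: potency of pump inhibitors that raise cellular JC-1 green fluorescence up to the nicardipine level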
[9] = molecular target: Nuclear receptor subfamily 5 group A member 2 (Homo sapiens, UniProt O00482); type: functional, cell-based;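 also: HEK293T cells transfected with LRH-1 and a StAR promoter luciferase reporter; potency for inhibitors that lower LRH-1 driven reporter light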
Chain of Nuclear receptor subfamily 5 group A member 2 (O00482 whole entry): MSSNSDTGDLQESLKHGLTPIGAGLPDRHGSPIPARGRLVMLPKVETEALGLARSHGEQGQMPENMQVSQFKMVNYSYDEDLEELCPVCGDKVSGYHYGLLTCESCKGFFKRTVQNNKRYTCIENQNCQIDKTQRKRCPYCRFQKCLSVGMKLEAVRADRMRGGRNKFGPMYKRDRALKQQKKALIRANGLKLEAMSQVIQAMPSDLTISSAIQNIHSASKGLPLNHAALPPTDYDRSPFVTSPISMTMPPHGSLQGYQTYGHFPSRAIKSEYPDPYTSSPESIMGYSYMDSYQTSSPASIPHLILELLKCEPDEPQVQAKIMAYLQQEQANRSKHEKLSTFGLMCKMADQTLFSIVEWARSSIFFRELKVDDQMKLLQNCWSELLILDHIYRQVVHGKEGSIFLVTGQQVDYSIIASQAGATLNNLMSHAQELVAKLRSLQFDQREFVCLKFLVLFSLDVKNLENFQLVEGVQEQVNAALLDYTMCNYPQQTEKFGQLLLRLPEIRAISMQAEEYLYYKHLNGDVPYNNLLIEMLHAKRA

[10] = molecular target: Steroidogenic factor 1 (Homo sapiens, UniProt Q13285); assay: Counterscreen for inverse agonists of the liver receptor homolog-1 (LRH-1; NR5A2): Luminescence-based cell-based high throughput dose response assay to identify inverse agonists of the Steroidogenic Factor 1 Nuclear Receptor (SF1; NR5A1).; type: functional
Chain of Steroidogenic factor 1 (Q13285 whole entry): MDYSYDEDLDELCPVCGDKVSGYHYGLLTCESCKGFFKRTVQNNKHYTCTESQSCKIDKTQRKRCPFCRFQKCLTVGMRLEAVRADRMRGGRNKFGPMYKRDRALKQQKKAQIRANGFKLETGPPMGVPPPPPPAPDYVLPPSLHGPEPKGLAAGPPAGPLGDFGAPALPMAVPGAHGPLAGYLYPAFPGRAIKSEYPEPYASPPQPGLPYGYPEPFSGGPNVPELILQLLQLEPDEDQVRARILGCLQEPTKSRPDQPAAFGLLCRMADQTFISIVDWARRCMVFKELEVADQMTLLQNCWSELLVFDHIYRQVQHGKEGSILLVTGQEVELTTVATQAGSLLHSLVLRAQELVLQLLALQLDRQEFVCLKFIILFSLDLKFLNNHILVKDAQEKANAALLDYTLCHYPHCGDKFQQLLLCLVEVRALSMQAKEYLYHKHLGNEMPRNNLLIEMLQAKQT

[11] = StAR promoter reporter inhibition counter-screen, dose response, counter-screen for LRH-1 inverse agonist project, cell-based, luminescence, luciferase reporter (AID 651969); type: functional

IC50 [1]: 19.5 µM (active)
SMILES: Nc1ccc(NC(=O)c2ccccc2)c2c1C(=O)c1ccccc1C2=O

SMILES: COC(=O)N1C(=O)[C@](c2ccc(Cl)cc2)(C(C)C)N1C(=O)OC
AC50 [2]: 18.7 µM (active)

SMILES: Cn1cc(S(=O)(=O)N2CCOCC2)cc1C(=O)NCc1ccc(Cl)cc1
IC50 [3]: 29.8 µM (inactive)
IC50 [4]: 83.3 µM (inactive)
IC50 [5]: 11.2 µM (inactive)

SMILES: O=C(c1ccoc1)N1CCN(c2cc(-c3ccncc3)nc3cc(-c4cccc(Cl)c4)nn23)CC1
IC50 [6]: > 79 µM (inactive)
EC50 [7]: 2.21 µM (active)
EC50 [8]: 3.43 µM (active)

SMILES: CC(=O)Nc1ccc(NC(=O)CSc2nnc(-c3cc4ccccc4o3)n2C)cc1
IC50 [9]: 35.9 µM (inactive)
IC50 [10]: 18.2 µM (inactive)
IC50 [11]: 35.9 µM (inactive)
